According to patent US20030144335A1, “Preventive or remedial agent for allergic disease and medical water-based liquid preparation, eye drop, and nasal drop” (priority 2001, published 2003):

Tested on: experimental allergic conjunctivitis model
Assay: Experimental allergic conjunctivitis model (dye leakage in palpebral conjunctiva of passively sensitized guinea pigs)
Type: in vivo, guinea pig
Details: at each concentration (0.01%, 0.1%, 1%); dose relationship confirmed
Description: In the test, Hartley male guinea pigs (each group consisting of 8 guinea pigs) at age 6 weeks were used.
Antiserum made by the following method was used: According to the method of Levine et al (J.Immunol.,106,29-33(1971)), the guinea pigs were sensitized with 4 times-administration of physiological saline 1 ml containing 10 μg of ovalbumin (hereafter called “OA”) and 5 mg of aluminum hydroxide via the peritoneal cavity at intervals of 2 weeks. 1 week after the final sensitization, blood was sampled from the hind leg, and left at room temperature for 30 minutes. The blood was then left at 4° C. for 4-5 hours, and serum was then collected by centrifugation at 1680×9.8 m/s^2 g for 15 minutes. The serum obtained was frozen and stored at −80° C.
20 μl/site of Anti OA guinea pig serum (64 antibody titer in PCA (passive cutaneous anaphylaxis reaction)) was diluted with an equal amount of physiological saline. 20 μl/site of the solution was injected intradermally in binocular palpebral conjunctiva of the guinea pig under ether anesthesia. Thus, passive sensitization was carried out. […]
Then, 8 ml of 0.6 mol/ml of liquid mixture of phosphoric acid and acetone(5 to 13) was added and shaken; thereafter, the mixture was stirred using a homogenizer, and centrifuged at 1680×9.8/s^2 for 15 minutes. The leakage pigment quantity was colorimetered at 620 nm using a spectrophotometer. […]

In the case of `CCS(=O)(=O)CCn1c([N+](=O)[O-])cnc1C` [tinidazole, 1-(2-ethylsulfonyl)ethyl-2-methyl-5-nitro-1H-imidazole], the “inhibitory effect on dye leakage (allergic conjunctivitis)” value is reported as “significant inhibitory effect”.
